Entries after “also recorded” stand apart in the source; their conditions may differ. Ends that are not written are not given here.
tested on: OVA-MMAF; test: Peptide ELISA binding experiment (Fc fusion peptides); conditions: antigens coated 1 µg/mL, peptide from 2000 nM (FIG. 34)
Experimental: The constructed Fc fusion peptide molecules PP-1A-#84 to #95 were used for identification of binding specificity to OVA-MMAF and OVA, to determine molecules with better specific binding activity to MMAE. […] Table 20. Amino acid sequence listing of PP-1A-#85 (peptide) to PP-1A-#94 (peptide) and PP-1A-#85 (Fc fusion peptide)
• (1) Antigen coating: MMAF conjugated protein and negative protein were coated onto a microplate using coating buffer at a concentration of 1 µg/mL, and the plate was placed at 4°C overnight for about 16 h. (2) Blocking: The plate coated with antigen was washed once with PBST using a plate washer, and blocked by adding Casein solution at 200 µL/well at room temperature for 1 h. (3) Primary antibody incubation: The plate was washed 3 times with PBST, and peptide samples with an initial concentration of 2000 nM diluted in a 5-fold gradient using Casein solution were added. The negative control was the Fc.uIgG1 molecule. Incubation was performed at room temperature for 2 h. (4) Secondary antibody incubation: The plate was washed 3 times with PBST, and secondary antibody Goat pAb to Hu IgG(HRP) (1:10000) (Abcam, Cat. Ab97225) diluted with Casein solution was added and incubated at room temperature for 1 h. (5) Color development: The plate was washed 6 times with PBST, 100 µL of TMB color development solution was added to each well, and color was developed for 2 to 10 min protected from light. (6) Termination: 100 µL of 2 M H2SO4 was added to each well to terminate the reaction. The OD450 value was read using a microplate reader, recorded, and saved. Finally, the data were analyzed using GraphPad software.

| Substance | specific binding to OVA-MMAF and OVA |
| --- | --- |
| ACDESHGVPHTSGMC [PP-1A-#85] | good binding activity to OVA-MMAF and did not bind to OVA |
| ACHWNAKADYGSFVC (cysteine pairing not given here; also: Fc fusion) [PP-1A-#91] | specific binding to OVA-MMAF, but the binding activity was relatively weak |
| ACLPNSLGPSAMSSC [PP-1A-#86] | good binding activity to OVA-MMAF and did not bind to OVA |
| ACLRNSPRKQC (cysteine pairing not given here; also: Fc fusion) [PP-1A-#90] | specific binding to OVA-MMAF, but the binding activity was relatively weak |
| ACRLTGPDWLHTQRC (cysteine pairing not given here; also: Fc fusion) [PP-1A-#88] | specific binding to OVA-MMAF, but the binding activity was relatively weak |
| ACTGCSRTHSPRSRC (cysteine pairing not given here; also: Fc fusion) [PP-1A-#92] | specific binding to OVA-MMAF, but the binding activity was relatively weak |
| ACTPALRSLAC (cysteine pairing not given here; also: Fc fusion) [PP-1A-#89] | good binding activity to OVA-MMAF and did not bind to OVA |
| ACVLSPHPQAC [PP-1A-#93] | good binding activity to OVA-MMAF and did not bind to OVA |

tested on: BSA-MMAF; test: Peptide competitive ELISA; format: binding; conditions: peptide 2000 nM, truncated free MMAE or null-ADC from 1000 nM (FIG. 35)
Experimental: • (1) Antigen coating: BSA-MMAF was coated onto a microplate using coating buffer at a concentration of […], and placed at 4°C overnight for about 16 h. (2) Blocking: The microplate coated with antigen was washed once with PBST using a plate washer, and blocked by adding Casein solution at 200 µL/well at room temperature for 1 h. (3) Primary antibody incubation: The plate was washed 3 times with PBST, and a premixture of peptide sample diluted with Casein solution and truncated free MMAE/null-ADC was added. The final concentration of the peptide sample was 2000 nM. […] The positive control was molecule ABC3320 with a final concentration of 1.28 nM. Incubation was performed at room temperature for 2 h. (4) Secondary antibody incubation: The plate was washed 3 times with PBST, and secondary antibody Goat pAb to Hu IgG(HRP) (1:10000) diluted with Casein solution was added and incubated at room temperature for 1 h. (5) Color development: The plate was washed 6 times with PBST, 100 µL of TMB color development solution was added to each well, and color was developed for 2 to 10 min protected from light. (6) Termination: 100 µL of 2 M H2SO4 was added to each well to terminate the reaction. The OD450 value was read using a microplate reader, recorded, and saved. Finally, the data were analyzed using GraphPad software.

| Substance | competitive binding of free MMAE |
| --- | --- |
| ACDESHGVPHTSGMC [PP-1A-#85] | blocked by truncated free MMAE, but not blocked by null-ADC |
| ACVLSPHPQAC [PP-1A-#93] | blocked by truncated free MMAE, but not blocked by null-ADC |

tested on: OVA-DXD; test: Dot blot screening for DXD specific binding peptides; conditions: OVA or OVA-DXD 20 µg/mL spotted (FIG. 40)
Experimental: Sample preparation: 50 mL of bacterial liquid induced with IPTG overnight (16°C, 16 h) was collected by centrifugation at 5000 rpm for 5 min, and the supernatant was discarded. 7 mL of PBS was added to resuspend the bacterial pellet, and it was disrupted at 200 W for 5 min. It was centrifuged at 12,000 rpm for 20 min, and the supernatant was collected for later use. Spotting: A nylon membrane (Beyotime, CAT#FFN10) was cut to an appropriate size and marked with lines. 3 µL of antigen sample (OVA or OVA-DXD, 20 µg/mL) was spotted onto the membrane using a pipette. The consistency of the spotted volume and the spacing between spots were carefully dealt with to avoid mutual interference between samples. After spotting, the membrane was allowed to dry naturally at room temperature. Blocking: The dried membrane was placed in a blocking solution (5% skim milk) and blocked on a shaker at room temperature for 1 to 2 h. The purpose of blocking was to prevent non-specific binding and reduce background signals. Washing: After incubation of the primary antibody, the membrane was thoroughly washed with washing buffer (PBST) 3 times for 5 min each time to remove unbound primary antibody. Secondary antibody incubation: The membrane was placed in a solution containing appropriately diluted secondary antibody and incubated at room temperature for 1 to 2 h. The secondary antibody was an antibody against the primary antibody, usually carrying a detectable label such as horseradish peroxidase (HRP) or alkaline phosphatase (AP). Washing: The membrane was washed again with washing buffer to remove unbound secondary antibody, 3 times for 5 min each time. Color development: An appropriate amount of ECL color development substrate solution was applied to the membrane, and the reaction was performed at room temperature protected from light. The color development was observed using a gel imager, and the membrane was photographed and recorded. Through observing the presence or absence and the color depth of the spots, the target protein in the sample can be qualitatively or semi-quantitatively analyzed.

| Substance | specific binding to DXD (dot blot) |
| --- | --- |
| ACGSLSWRNCGSYRC [PP-1A-#417] | capable of specifically binding to DXD |
| ACLACWTSRSC [PP-1A-#414] | capable of specifically binding to DXD |
| ACLSPWLFFWC [PP-1A-#415] | capable of specifically binding to DXD |
| ACSQCVLLPPPQSVC [PP-1A-#431] | capable of specifically binding to DXD |
| ACWTLWLPLLPLGSC [PP-1A-#428] | capable of specifically binding to DXD |
| ACYPFGNPRGVRPSC [PP-1A-#426] | capable of specifically binding to DXD |
| AHNVEILPPFDYTLS [PP-1A-#358] | capable of specifically binding to DXD |
| APPTFPVSTSVVISR [PP-1A-#367] | capable of specifically binding to DXD |
| ILTTVNVVPNTIHVR [PP-1A-#340] | capable of specifically binding to DXD |
| LTVAMITTSRITTSN [PP-1A-#362] | capable of specifically binding to DXD |
| VALTWYYPIYLFATR [PP-1A-#330] | capable of specifically binding to DXD |

tested on: NCI-H292 tumor cells; test: Inhibitory effect of DXD-binding peptides on DXD cytotoxicity; format: cell-based; conditions: DXD 1 ng/mL, peptides from 100 µg/mL, 3 days (FIG. 41)
Experimental: NCI-H292 tumor cells were used to detect the inhibitory effect of DXD-binding peptides on DXD cytotoxicity.
NCI-H292 cells were digested, counted, and plated at 5E3 cells/well, with 60 µL per well, and allowed to adhere in a 37°C incubator. Peptide molecules and nonsense control antibody Null IgG were 2-fold diluted for 7 gradients starting at a concentration of 100 µg/mL The DXD concentration was fixed to 1 ng/mL. The test substances were incubated with DXD at room temperature for 2 h. The incubated samples were added into the 96-well plate at 60 µL/well and cultured in a 37°C incubator for 3 days. 100 µL of Cell Counting-Lite 2.0 Reagent was added to each well, and the plate was shaken on a shaker for 10 min. The fluorescence signal was read using a microplate reader.

| Substance | cytoprotective effect |
| --- | --- |
| ACGSLSWRNCGSYRC [PP-1A-#417] | exhibited a cytoprotective effect |
| ACLACWTSRSC [PP-1A-#414] | exhibited a cytoprotective effect; also recorded: had the best activity |
| ACLSPWLFFWC [PP-1A-#415] | exhibited a cytoprotective effect |
| ILTTVNVVPNTIHVR [PP-1A-#340] | exhibited a cytoprotective effect |

tested on: OVA-MMAF and BSA-MMAF; test: Peptide ELISA binding experiment (PP-1B Fc fusion peptides); conditions: FIG. 42
Experimental: The binding of the constructed Fc fusion peptide molecules PP-1B-#70 to #74 with OVA-MMAF and OVA was identified respectively to screen for molecules with better specific binding specificity to MMAE. After the first round of primary screening was completed, the binding specificity of #74 with OVA-MMAF and BSA-MMAF was further verified.
• (1) Antigen coating: MMAF conjugated protein and negative protein were coated onto a microplate using coating buffer at a concentration of 1 µg/mL, and the plate was placed at 4°C overnight for about 16 h. (2) Blocking: The microplate coated with antigen was washed once with PBST using a plate washer, and blocked by adding Casein solution at 200 µL/well at room temperature for 1 h. (3) Primary antibody incubation: The plate was washed 3 times with PBST, and peptide samples with an initial concentration of 2000 nM diluted in a 5-fold gradient using Casein solution were added and the plate incubated at room temperature for 2 h. (4) Secondary antibody incubation: The plate was washed 3 times with PBST, and secondary antibody Goat pAb to Hu IgG(HRP) (1:10000) (Abcam, Cat. Ab97225) diluted with Casein solution was added and the plate was incubated at room temperature for 1 h. […] The OD450 value was read using a microplate reader, recorded, and saved. Finally, the data were analyzed using GraphPad software.

| Substance | specific binding to OVA-MMAF and BSA-MMAF |
| --- | --- |
| YYVAWRW [PP-1B-#74] | able to specifically bind to OVA-MMAF and BSA-MMAF |

tested on: BSA-MMAF; test: Peptide competitive ELISA (PP-1B-#74); format: binding; conditions: FIG. 43
Experimental: Based on the peptide molecule binding activity results, molecule PP-1B-#74 was further verified for its specific binding to MMAE through competitive experiments.
• (1) Antigen coating: BSA-MMAF was coated onto a microplate using coating buffer at a concentration of 1 µg/mL, and the plate was placed at 4°C overnight for about 16 h. (2) Blocking: The microplate coated with antigen was washed once with PBST using a plate washer, and blocked by adding Casein solution at 200 µL/well at room temperature for 1 h. (3) Primary antibody incubation: The plate was washed 3 times with PBST, and a premixture of peptide sample diluted with Casein solution and truncated free MMAE/null-ADC was added. The final concentration of the peptide sample was 2000 nM. The initial concentration of truncated free MMAE and null-ADC was 1000 nM, diluted in a 10-fold gradient, and incubation was performed at room temperature for 2 h. (4) Secondary antibody incubation: The plate was washed 3 times with PBST, and secondary antibody Goat pAb to Hu IgG(HRP) (1:10000) diluted with Casein solution was added and the plate was incubated at room temperature for 1 h. […] Termination: 100 µL of 2 M H2SO4 was added to each well to terminate the reaction, and the OD450 value was read using a microplate reader, recorded, and saved. (6) Finally, the data were analyzed using GraphPad software.

| Substance | specific binding to MMAE (competitive ELISA) |
| --- | --- |
| YYVAWRW [PP-1B-#74] | able to specifically bind to MMAE |

target: Nectin-4 (UniProt Q96NY8); test: binding assay read as OD450; method not described; conditions: not given
Sequence (Q96NY8 32-349 limits assumed): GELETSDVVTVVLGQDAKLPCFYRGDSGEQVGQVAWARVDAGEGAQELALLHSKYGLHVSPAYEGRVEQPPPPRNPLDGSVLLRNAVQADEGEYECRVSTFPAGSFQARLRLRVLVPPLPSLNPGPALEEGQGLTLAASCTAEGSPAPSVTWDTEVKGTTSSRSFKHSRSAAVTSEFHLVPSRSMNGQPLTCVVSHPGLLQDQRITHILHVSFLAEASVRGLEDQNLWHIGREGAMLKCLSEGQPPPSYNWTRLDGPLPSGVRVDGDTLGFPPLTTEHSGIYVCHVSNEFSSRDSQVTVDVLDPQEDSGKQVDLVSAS

| Substance | Top OD450 |
| --- | --- |
| Enfortumab vedotin (in-house) (antibody) | 1.23 OD450 |
| hIgG1 (antibody) | 0 OD450 |

— patent EP4725508A1, “LIGAND-DRUG CONJUGATE HAVING FREE PAYLOAD RECOVERY UNIT” (RemeGen Co., Ltd., priority 2024, dated 2025)
